From patent EP4803511A1, “SMALL MOLECULE COMPOUND HAVING SULFONIC ACID OR SULFINIC ACID LACTONE STRUCTURE, COMPOSITION AND USE THEREOF” (Hangzhou Phecdamed Co., Ltd., priority 2023, dated 2025)

How the values were obtained:
[1] = system: wild-type AB strain zebrafish; test: Zebrafish model, relieving stinging efficacy (SDS-induced, movement distance and speed); assay type: in vivo; conditions: zebrafish 3 dpf, 100 µM SDS model; effective concentrations 22.2, 66.6, and 200 µg/mL
Experimental: Experimental animal: Healthy wild-type AB strain zebrafish at 3 dpf (days post fertilization)
Evaluation of the relieving stinging efficacy: Healthy AB strain zebrafish were taken and randomly divided into four groups: blank control, modeling group, positive control, and sample group. The zebrafish in the blank control group were treated with embryo culture water; the zebrafish in the modeling group were treated with a modeling drug (100 µM SDS , sodium dodecyl sulfate); the zebrafish in the positive control group were treated with both the modeling agent and a positive control drug (200 µM asiaticoside solution); and the zebrafish in the sample group were treated with both the modeling drug and different concentrations of the test sample (high, medium, and low concentrations). After continuous treatment for a certain period, the zebrafish's behavioral trajectories were recorded using a behavior analyzer, and the changes in total movement distance and speed were statistically analyzed, the results are shown in FIGS. 2-4. […] In the behavioral trajectory diagram in FIG. 2, the black lines represent the zebrafish's behavioral trajectories in the hole; the more numerous and chaotic the lines, the more vigorous the movement of the zebrafish.

[2] = system: Mn-sod; test: Zebrafish oxidative aging model (menadione), Mn-sod gene expression by RT-qPCR; assay type: in vivo; conditions: I-8 at 2.5, 7.5, and 22.2 µg/mL, 22 hrs, 4 µM menadione; compared to the modeling group, statistical significance
Experimental: (§1) Experimental animal: Healthy wild-type AB strain zebrafish at 48 hpf (hours post-fertilization)
(§2) Healthy AB strain zebrafish were taken as experimental animal. A zebrafish oxidative aging model was constructed using chemical mutagenesis with 4 µM menadione as the modeling drug. Fucoxanthin was used as a positive control compound. After treating the zebrafish oxidative aging model with different concentrations of I-8 for 22 hrs, changes in the reactive oxygen species (ROS) content, β-galactosidase activity, and the expression of three antioxidant and anti-aging related genes (Cu/Zn-sod, Mn-sod, and ampk) were respectively detected and statistically analyzed.
(§3) During the experiment, the modeling drug, positive compound, and I-8 were dispersed together in the culture water of zebrafish. […] Cell ROX™ Deep Red fluorescent probes and β-galactosidase staining kits were used to specifically label ROS and β-galactosidase in the fish, respectively, and the staining intensity was quantified using Image-Pro Plus software. After extracting RNA from the whole fish, the expression changes of three genes (Cu/Zn-sod, Mn-sod, and ampk) in the fish were detected at the mRNA level using Quantitative Real-time PCR (RT-qPCR). The data were statistically analyzed using GraphPad software.

[3] = system: β-galactosidase; test: Zebrafish oxidative aging model (menadione), β-galactosidase activity; assay type: in vivo; conditions: I-8 at 22.2 µg/mL, 22 hrs, 4 µM menadione; compared with the modeling group, statistical significance
Experimental: as §1, §2, §3

[4] = Permeability into skin using a Franz diffusion cell; assay type: in vitro ADME, Bama miniature pig; conditions: for Concentration of the compound to be test in the skin, Mean / Concentration of the compound to be test in the skin, Skin-1 / Concentration of the compound to be test in the skin, Skin-2 / Concentration of the compound to be test in the skin, Skin-3: 0.1 mg/mL solution, 32 °C
Experimental: Experimental materials: skin from the back of a one-month-old Bama miniature pig, 0.8-1.0 mm thick; 0.1 mg/mL solution of the compound to be test, dissolvent: 50 mM Sodium Phosphate Buffer (PB) buffer solution containing 20% ethanol.
Experimental procedure: • 1. 400 uL solution of the compound to be test was pipetted into the feed cell, repeated three times. • 2. About 7600 uL of 50 mM PB buffer solution was added to the corresponding receiving cell. • 3. The compound to be test was permeated at 32 °C for 2 hrs and 6 hrs. • 4. At 2 hrs and 6 hrs, the skin was washed with 50 mM PB buffer solution containing 20% ethanol, the skin from the permeation area was removed and homogenized, and acetonitrile solution containing internal standard was added. • 5. Centrifugation was performed, 100 µL of the supernatant was taken and added into 100 µL of purified water, after mixing uniformly, quantitative analysis was performed by LC-MS/MS.

[5] = system: Cu/Zn-sod; test: Zebrafish oxidative aging model (menadione), Cu/Zn-sod gene expression by RT-qPCR; assay type: in vivo; conditions: I-8 at 2.5, 7.5, and 22.2 µg/mL, 22 hrs, 4 µM menadione; compared to the modeling group, statistical significance
Experimental: as §1, §2, §3

[6] = system: IL-1β; test: IL-1β gene expression in HaCaT after UVB radiation (q-PCR); assay type: cell-based, human; conditions: UVB 80 mJ/cm^2, 24 hrs, dose-dependent
Description: In the following Test Examples 6-1 and 6-2, using immortalized keratinocytes (HaCaT) and UVB to establish a model, after the compound to be test was applied to HaCaT, the expression levels of TNF-α, IL-8, IL-1β and EP2 were detected; using immortalized keratinocytes (HaCaT) and capsaicin to establish a model, after the compound to be test was applied to HaCaT, the expression level of TRPV1 was detected, so as to evaluate the soothing effect of the test substance from multiple dimensions.
• 1) Cell inoculation: HaCaT cells were inoculated into a 6-well plate at 6×10^5/well, cultured in an incubator (37°C, 5% CO2) for 12 hrs, and a normal control group (0 mJ/cm^2 + vehicle control), a model control group (80 mJ/cm^2 + vehicle control), a low concentration group (80 mJ/cm^2 + low concentration compound), a medium concentration group (80 mJ/cm^2 + medium concentration compound), and a high concentration group (80 mJ/cm^2 + high concentration compounds) were respectively provided. • 2) UVB modeling: The HaCaT cells were washed 3 times with D'Hanks before UVB radiation, 1 mL of D'Hanks was added into the wells, to make the cells to be immersed, and the control group was coated with tinfoil and placed in the dark. […]

O=S1(=O)Oc2cc(O)ccc2-c2ccc(O)cc21 [Compound I-8]
relieving stinging efficacy [1]: certain relieving stinging efficacy | expression of Mn-sod gene [2]: upregulated | β-galactosidase activity [3]: downregulated | Concentration of the compound to be test in the skin, Mean ([4]; Time 2 h): 7167 ng/g | Concentration of the compound to be test in the skin, Skin-1 ([4]; Time 2 h): 7450 ng/g | Concentration of the compound to be test in the skin, Skin-2 ([4]; Time 2 h): 6600 ng/g | Concentration of the compound to be test in the skin, Skin-3 ([4]; Time 2 h): 7450 ng/g | Concentration of the compound to be test in the skin, Mean ([4]; Time 6 h): 11417 ng/g | Concentration of the compound to be test in the skin, Skin-1 ([4]; Time 6 h): 13650 ng/g | Concentration of the compound to be test in the skin, Skin-2 ([4]; Time 6 h): 10450 ng/g | Concentration of the compound to be test in the skin, Skin-3 ([4]; Time 6 h): 10150 ng/g | permeation amount ([4]; within 6 hours): 10 µg/g | expression of Cu/Zn-sod gene [5]: upregulated | expression level of IL-1β [6]: downregulating
